Patent publication US20230338609A1, “MEDICAL DEVICES AND MATERIALS COMPRISING BIODEGRADABLE POLYESTERS” (AMICOAT AS, priority 2020, published 2023)
Converted amounts (≈) assume the structure as drawn.

Legend:
[1] = tested on: Staphylococcus epidermidis methicillin-resistant clinical isolate; assay type: cell-based
From the text: (§1) Cation-adjusted Mueller-Hinton broth (Oxoid Ltd., Basingstoke, UK and Trek Diagnostic Systems Ltd., East Grinstead, UK) (supplemented with 5% laked horse blood for Streptococcus spp., Corynebacterium jeikeium and Listeria monocytogenes) was used for aerobic bacteria, with an initial inoculum of approximately 10^5 colony-forming units (CFU)/mL.

[2] = tested on: HT2001254 Staphylococcus aureus (MRSA) - PVL positive; assay type: cell-based
From the text: as §1

[3] = tested on: Staphylococcus saprophyticus - antibiotic susceptible clinical isolate; assay type: cell-based
From the text: as §1

[4] = tested on: Enterococcus gallinarum vancomycin-resistant (VanC) clinical isolate; assay type: cell-based
From the text: as §1

[5] = tested on: Streptococcus agalactiae - antibiotic-susceptible clinical isolate; assay type: cell-based
From the text: as §1

[6] = tested on: EMRSA15 Staphylococcus aureus (MRSA) - SSCmec type 4; assay type: cell-based; details: EMRSA15 - SSCmec type 4
From the text: as §1

[7] = tested on: Corynebacterium jeikeium - multi-drug resistant clinical isolate; assay type: cell-based
From the text: as §1

[8] = tested on: Staphylococcus aureus ATCC 29213 - antibiotic-susceptible control strain; assay type: cell-based
From the text: as §1

[9] = tested on: EMRSA3 Staphylococcus aureus (MRSA) - SSCmec type 1; assay type: cell-based; details: EMRSA3 - SSCmec type 1
From the text: as §1

[10] = tested on: Moraxella catarrhalis - reduced fluoroquinolone susceptibility clinical isolate; assay type: cell-based
From the text: as §1

[11] = tested on: Moraxella catarrhalis - β -lactamase positive clinical isolate; assay type: cell-based
From the text: as §1

[12] = tested on: Streptococcus bovis - macrolide-resistant clinical isolate; assay type: cell-based
From the text: as §1

[13] = tested on: Staphylococcus aureus - methicillin-resistant clinical isolate; assay type: cell-based
From the text: as §1

[14] = tested on: Staphylococcus haemolyticus - antibiotic susceptible clinical isolate; assay type: cell-based
From the text: as §1

[15] = tested on: Staphylococcus aureus ATCC 43300 - methicillin-resistant control strain; assay type: cell-based
From the text: as §1

[16] = tested on: Corynebacterium jeikeium - antibiotic-susceptible clinical isolate; assay type: cell-based
From the text: as §1

[17] = tested on: Staphylococcus epidermidis antibiotic susceptible clinical isolate; assay type: cell-based
From the text: as §1

[18] = tested on: Staphylococcus aureus ATCC 25923 - antibiotic-susceptible control strain; assay type: cell-based
From the text: as §1

[19] = tested on: Pseudomonas aeruginosa - multi-drug resistant clinical isolate; assay type: cell-based
From the text: as §1

[20] = tested on: Methicillin resistant Staphylococcus aureus (MRSA) strain ATCC 33591; details: ATCC 33591
[21] = tested on: Methicillin resistant Staphylococcus epidermidis (MRSE) strain ATCC 27626; details: ATCC 27626
E. coli = details: Table 5
S. pyogenes = details: Table 5
P. aeruginosa = details: Table 5
C. albicans = details: Table 5
[22] = tested on: Streptococcus pyogenes CS301; assay: Murine skin infection model, topical treatment; assay type: in vivo; details: mice
Protocol: (§2) The skin of mice was infected with Staphylococcus aureus or Streptococcus pyogenes and subsequently given a total of three treatments at three hourly intervals. Three hours after the last treatment, skin biopsies were collected and the number of colony forming units (CFUs) present in the skin sample was determined. Results are shown in FIGS. 1 and 2, expressed as the number of colony forming units per mouse.
as §2, with “3, 4” for “1”, “5” for “2,”

[23] = tested on: Staphylococcus aureus FDA486; assay: Murine skin infection model, topical treatment; assay type: in vivo; details: mice; cream or gel containing 2% (w/w); three treatments at three hourly intervals; biopsy three hours after last
Protocol: as §2
as §2, with “3, 4” for “1”, “5” for “2,”

[24] = tested on: Staphylococcus aureus, strain ATCC 25923; details: ATCC 25923
[25] = tested on: Candida (Issatchenkia) krusei ATCC6258 - reference strain; assay type: cell-based
Protocol: (§3) Yeast and filamentous fungal MIC were performed in MOPS buffered RPMI 1640 medium (MOPS buffer obtained from Sigma Aldrich Ltd., RPMI 1640 obtained from Invitrogen Ltd, Paisley, Scotland). The yeast inocula were in the range 7.5×10^2-4×10^3 CFU/mL and the filamentous fungi approximately 8×10^3-1×10^5 CFU/mL

[26] = tested on: Candida tropicalis ATCC750 - reference strain; assay type: cell-based
Protocol: as §3

[27] = tested on: Trichophyton mentagrophytes - G.R. Micro collection; assay type: cell-based
Protocol: as §3

[28] = tested on: Cryptococcus neoformans - G.R. Micro collection; assay type: cell-based
Protocol: as §3

Q: Which results are given for CC(C)NC(=O)[C@H](CCCNC(=N)N)NC(=O)[C@H](Cc1c(C(C)(C)C)[nH]c2c(C(C)(C)C)cc(C(C)(C)C)cc12)NC(=O)[C@@H](N)CCCNC(=N)N [Compound 7]?
A: MIC [1]: 4 µg/mL (≈ 5.51 µM); MIC [2]: 8 µg/mL (≈ 11 µM); MIC [3]: 2 µg/mL (≈ 2.75 µM); MIC [4]: 8 µg/mL (≈ 11 µM); MIC [5]: 8 µg/mL (≈ 11 µM); MIC [6]: 8 µg/mL (≈ 11 µM); MIC [7]: 8 µg/mL (≈ 11 µM); MIC [8]: 8 µg/mL (≈ 11 µM); MIC [9]: 8 µg/mL (≈ 11 µM); MIC [10]: 8 µg/mL (≈ 11 µM); MIC [11]: 4 µg/mL (≈ 5.51 µM); MIC [12]: 8 µg/mL (≈ 11 µM); MIC [13]: 8 µg/mL (≈ 11 µM); MIC [14]: 4 µg/mL (≈ 5.51 µM); MIC [15]: 8 µg/mL (≈ 11 µM); MIC [16]: 8 µg/mL (≈ 11 µM); MIC [17]: 4 µg/mL (≈ 5.51 µM); MIC [18]: 8 µg/mL (≈ 11 µM); MIC [19]: 8 µg/mL (≈ 11 µM); MRSA (MIC) [20]: <2 µg/mL; MRSE (MIC) [21]: <2 µg/mL; E. coli (MIC) (E. coli): 7 µg/mL; S. pyogenes (MIC) (S. pyogenes): <2 µg/mL; P. aeruginosa (MIC) (P. aeruginosa): 7 µg/mL; C. albicans (MIC) (C. albicans): 25 µg/mL; number of CFUs in skin biopsy vs placebo gel and bactroban ([22]; 1% or 2% gel, three treatments at three hourly intervals): more effective at reducing the number of CFUs from a Streptococcus pyogenes CS 301 infection than the placebo gel or the bactroban; number of CFUs in skin biopsy, 2% gel compared with 1% gel ([22]; 2% gel vs 1% gel): more effective than the gel containing only 1% of compound 7; number of CFUs in skin biopsy vs placebo [23]: the number of CFUs was reduced; S. aureus (MIC) [24]: <2 µg/mL; MIC [25]: 8 µg/mL (≈ 11 µM); MIC [26]: 4 µg/mL (≈ 5.51 µM); MIC [27]: 8 µg/mL (≈ 11 µM); MIC [28]: 8 µg/mL (≈ 11 µM)
